# Assay results taken from patent publication US20130131321A1, “LIGANDS FOR ANTIBODY AND Fc-FUSION PROTEIN PURIFICATION BY AFFINITY CHROMATOGRAPHY” (GRAFFINITY PHARMACEUTICALS GMBH, priority 2010, published 2013).
# Where two headings read alike, the source gives them in different places.
# Legend:
# [1] = molecular target: T1, Bevacizumab (Homo sapiens, UniProt P01857); experiment: Microtiter plate chromatography of resins, Bevacizumab whole IgG (bound, yield, selectivity); type: binding, humanized; conditions: for Bevacizumab IgG Bound (%): fraction of whole IgG Bevacizumab bound to resin; for Bevacizumab IgG Yield (%): mass of whole IgG Bevacizumab eluted / mass injected
# T1 construct: fused on or other part: humanised anti-VEGF-A VH domain N-terminal of the gamma-1 constant region (engineered, no UniProt entry)
# Description: (§1) Resins were assessed in packed mode by microtiter plate chromatography. For each column, approximately 30 μl of resin were transferred to a 384-well filter plate and sealed with appropriate top frits.
# (§2) Columns were equilibrated with 6.7 column volumes (cv) of phosphate buffered saline (0.15 M NaCl, 20 mM sodium phosphate, pH 7.3; PBS) prior to injection. Either 3.3 cv of whole IgGs dissolved at 0.75 mg ml^−1, Fab or Fc fragments dissolved at 0.25 mg ml^−1 (all three in PBS) or host cell proteins (HCP) were injected onto columns. Antibody fragments of Bevacizumab (Fab and Fc) were prepared by cleavage of whole IgG with papain protease (3) according to the protocol of the manufacturer. […] Volumes transferred were spun through columns at 50 g for 1-2 min. During injection of samples, acceleration was reduced to 10 g and centrifugation time increased to 5-10 min. Effluent fractions were collected in 384-well plates and concentrations of protein analyzed by Bradford assay. Protein masses mi, mft and me (see below) were calculated as the product of fraction volume and measured protein concentration.
# (§3) The fraction of ‘bound’ protein was calculated as the difference between the total mass of protein injected mi and the mass of protein detected in the flowthrough mft, divided by the total mass of protein injected.
# (§4) The ‘yield’ of protein was calculated as the mass of protein eluted me, divided by the mass of protein injected mi.
# (§5) The ‘selectivity’ of resins was calculated as the fraction of bound antibody BAb, divided by the fraction of bound host cell proteins BHCP.
# (§6) the fraction of ‘bound’ protein and the ‘yield’ of protein were calculated for each resin based on data for whole IgG-antibodies. In the case of Bevacizumab fragments and host cell proteins, only the fraction of ‘bound’ protein is given. Selectivity of resins was calculated from data for Bevacizumab Whole IgG and host cell proteins. Due to limited experimental precision, selectivity was truncated beyond values of 10.
# [2] = test system: Bevacizumab; experiment: as above; type: binding, humanized
# Description: as §1, §2, §3, §4, §5, §6
# [3] = test system: Tocilizumab; experiment: Microtiter plate chromatography of resins, Tocilizumab (bound, yield); type: binding, humanized
# Description: as §1, §2, §3, §4, §6
# [4] = test system: host cell proteins (HCP); experiment: Microtiter plate chromatography of resins, host cell proteins (bound); type: binding, CHO; conditions: host cell proteins
# Description: Flowthrough from protein A chromatography (referred to as host cell proteins) was derived from the supernatant of antibody-producing CHO cell culture in serum-free medium.
# as §1, §2, §3, §6
# [5] = test system: human poly-IgG (h-poly-IgG); experiment: Microtiter plate chromatography of resins, human poly-IgG (bound, yield); type: binding
# Description: as §1, §2, §3, §4, §6
# [6] = test system: Palivizumab; experiment: Microtiter plate chromatography of resins, Palivizumab (bound, yield); type: binding, humanized
# Description: as §1, §2, §3, §4, §6
# [7] = fraction of bound Bevacizumab whole IgG / fraction of bound HCP, truncated beyond values of 10
SMILES,Bevacizumab IgG Bound (%) [1] [%],Bevacizumab IgG Yield (%) [1] [%],Selectivity [2],"selectivity index ([2]; fraction of bound Bevacizumab whole IgG divided by fraction of bound HCP, truncated beyond 10)",Tocilizumab Bound (%) [3] [%],Tocilizumab Yield (%) [3] [%],HCP Bound (%) [4] [%],h-poly-IgG Bound (%) [5] [%],h-poly-IgG Yield (%) [5] [%],Palivizumab Bound (%) [6] [%],Palivizumab Yield (%) [6] [%],"Selectivity [2, 7]"
"COc1ccc(NC(=O)c2cn3ccsc3n2)cc1C(=O)NCCCN [Ligand L37, 5-(Imidazo[2,1-b]thiazol-6-yl)carboxamido-2-methoxybenzoic acid N-(3-aminopropyl)amide]",100,92,3.4,3.4,99,95,29,94,70,92,87,–
"CCn1nc(C(=O)Nc2ccc(OC)c(C(=O)NCCCN)c2)c2ccccc21 [Ligand L38, 5-(1-Ethylindazol-3-ylcarboxamido)-2-methoxybenzoic acid (3-amino-1-propyl)amide]",100,100,2.2,–,100,99,45,100,99,91,79,–
"COc1ccc(C(=O)Nc2nn(C)c3ccccc23)cc1C(=O)NCCCN [Ligand L39, 5-[N-(1-Methylindazol-3-yl)carbamoyl]-2-methoxybenzoic acid (3-amino-1-propyl)amide]",100,100,2.9,–,100,100,35,100,100,100,100,–
"COc1ccc(NC(=O)c2nc3cccnc3[nH]2)cc1C(=O)NCCCN [Ligand L41, 5-(3H-Imidazo[4,5-b]pyridin-2-ylcarboxamido)-2-methoxybenzoic acid (3-amino-1-propyl)amide]",100,100,–,–,91,91,9,85,85,74,71,10.0
"COc1ccc(NC(=O)c2cc(-c3csc(C)n3)on2)cc1C(=O)NCCCN [Ligand L42, 2-Methoxy-5-[5-(2-methylthiazol-4-yl)isoxazol-3-ylcarboxamido]benzoic acid (3-amino-1-propyl)amide]",100,92,3.1,–,100,99,32,100,100,99,99,–
"COc1ccc(NC(=O)c2nnc3ccccn23)cc1C(=O)NCCCN [Ligand L43, 2-Methoxy-5-([1,2,4]triazolo[4,3-a]pyridin-3-ylcarboxamido)benzoic acid (3-amino-1-propyl)amide]",100,90,8.0,–,88,88,13,90,90,61,43,–
"COc1ccc(NC(=O)c2nn(C)c3ncccc23)cc1C(=O)NCCCN [Ligand L44, 2-Methoxy-5-(1-methylpyrazolo[3,4-b]pyridin-3-ylcarboxamido)benzoic acid (3-amino-1-propyl)amide]",100,100,–,–,78,78,4,73,73,56,56,10.0
"COc1ccc(NC(=O)c2cc(-c3ccco3)on2)cc1C(=O)NCCCN [Ligand L45, 5-[5-(2-Furyl)isoxazol-3-ylcarboxamido]-2-methoxybenzoic acid (3-amino-1-propyl)amide]",100,82,2.3,–,100,100,44,100,100,100,100,–
"COc1ccc(NC(=O)c2cc3ccccn3n2)cc1C(=O)NCCCN [Ligand L46, 2-Methoxy-5-(pyrazolo[1,5-a]pyridin-2-ylcarboxamido)benzoic acid (3-amino-1-propyl)amide]",100,82,5.0,–,100,97,20,93,93,85,85,–
"COc1ccc(NC(=O)c2nc3ccccc3[nH]2)cc1C(=O)NCCCN [Ligand L47, 5-(1H-Benzimidazol-2-ylcarboxamido)-2-methoxybenzoic acid (3-amino-1-propyl)amide]",100,97,2.9,–,100,100,35,71,65,85,85,–
"COc1ccc(NC(=O)c2cn3ncccc3n2)cc1C(=O)NCCCN [Ligand L48, 5-(Imidazo[1,2-b]pyridazin-2-ylcarboxamido)-2-methoxybenzoic acid (3-amino-1-propyl)amide]",100,97,–,–,87,87,8,84,84,58,54,10.0
"COc1ccc(NC(=O)c2cc(-c3ccccc3)no2)cc1C(=O)NCCCN [Ligand L51, 2-Methoxy-5-(3-phenylisoxazol-5-ylcarboxamido)benzoic acid (3-amino-1-propyl)amide]",100,95,3.3,–,95,93,30,89,89,85,85,–
"COc1ccc(NC(=O)c2cc(-c3ccco3)ccn2)cc1C(=O)NCCCN [Ligand L52, 5-[4-(2-Furyl)pyridin-2-ylcarboxamido]-2-methoxybenzoic acid (3-amino-1-propyl)amide]",100,99,2.4,–,100,100,41,100,100,100,83,–
"COc1ccc(-c2noc(C(=O)Nc3ccc(OC)c(C(=O)NCCCN)c3)n2)cc1 [Ligand L54, 2-Methoxy-5-[3-(4-methoxyphenyl)-1,2,4-oxadiazol-5-ylcarboxamido]benzoic acid (3-amino-1-propyl)amide]",100,100,2.8,–,100,100,36,100,98,100,84,–
